Assay results as given in patent US9345258B2, “Synergistic phytochemical composition and a process for preparation thereof” (priority 2011, dated 2016).

Test system: primary OA
Assay: Randomized, single blind, placebo-controlled trial in painful osteoarthritis
Type: in vivo, patients
Conditions: 42 days treatment
Experimental: The present trial was earned out to evaluate the effectiveness of the composition of the invention in the treatment of painful OA [a randomized, single blind, placebo-controlled trial]. 120 patients (37 males and 83 females) with primary OA received either the composition of the invention (500 mg twice daily) or Glucosamine sulphate (750 mg twice daily) or placebo (500 mg twice daily) or combination of the composition of the invention and Glucosamine sulphate for 42 days. During the treatment period two follow up visits on day 21st and day 42nd, efficacy was evaluated in terms of change in the intensity/severity of symptoms (as measured by VAS, WOMAC scale) and examination by orthopaedician (as measured by CGIC).

## N[C@H]1C(O)O[C@H](CO)[C@@H](O)[C@@H]1O.O=S(=O)(O)O (stereo partly shown) [Glucosamine sulphate]
  signs and symptoms of OA: Overall improvement
